Measurements as given in ChEMBL document CHEMBL1142498 (J Med Chem, 2008).
pIC50, pKi: −log10 of the molar value.

Columns and labels:
Rattus norvegicus = organism: Rattus norvegicus; test: Displacement of [3H]prazosin from alpha1 adrenergic receptor in Sprague-Dawley rat cortical membrane at 1 uM
[1] = biological target: Sodium-dependent serotonin transporter (Homo sapiens, UniProt P31645); type: cell-based, JAR
Description: Inhibition of 5-HT transporter-mediated [3H]5HT uptake in human Jar cells

[2] = biological target: Sodium-dependent serotonin transporter (Rattus norvegicus, UniProt P31652)
Description: Displacement of [3H]paroxetine from serotonin transporter in Sprague-Dawley rat frontal cortical membrane

[3] = biological target: T1, 5-hydroxytryptamine receptor 1A (Homo sapiens, UniProt P08908)
T1 sequence (P08908 whole entry): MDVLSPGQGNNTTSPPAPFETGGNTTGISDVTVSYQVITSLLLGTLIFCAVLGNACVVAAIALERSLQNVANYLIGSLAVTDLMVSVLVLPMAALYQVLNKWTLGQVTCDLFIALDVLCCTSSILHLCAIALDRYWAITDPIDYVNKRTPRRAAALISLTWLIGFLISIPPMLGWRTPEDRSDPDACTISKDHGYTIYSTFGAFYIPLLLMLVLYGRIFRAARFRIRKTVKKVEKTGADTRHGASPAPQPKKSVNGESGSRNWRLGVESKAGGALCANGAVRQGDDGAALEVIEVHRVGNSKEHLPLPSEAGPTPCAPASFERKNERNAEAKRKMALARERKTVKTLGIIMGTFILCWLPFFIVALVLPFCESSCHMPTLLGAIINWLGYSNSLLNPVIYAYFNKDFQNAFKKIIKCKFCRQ
Description: Activity at human cloned 5HT1A receptor expressed in CHO cells assessed as blockade of 5-HT-stimulated [35S]GTPgammaS binding

Chain of Sodium-dependent serotonin transporter (Homo sapiens, UniProt P31645) (P31645 whole entry): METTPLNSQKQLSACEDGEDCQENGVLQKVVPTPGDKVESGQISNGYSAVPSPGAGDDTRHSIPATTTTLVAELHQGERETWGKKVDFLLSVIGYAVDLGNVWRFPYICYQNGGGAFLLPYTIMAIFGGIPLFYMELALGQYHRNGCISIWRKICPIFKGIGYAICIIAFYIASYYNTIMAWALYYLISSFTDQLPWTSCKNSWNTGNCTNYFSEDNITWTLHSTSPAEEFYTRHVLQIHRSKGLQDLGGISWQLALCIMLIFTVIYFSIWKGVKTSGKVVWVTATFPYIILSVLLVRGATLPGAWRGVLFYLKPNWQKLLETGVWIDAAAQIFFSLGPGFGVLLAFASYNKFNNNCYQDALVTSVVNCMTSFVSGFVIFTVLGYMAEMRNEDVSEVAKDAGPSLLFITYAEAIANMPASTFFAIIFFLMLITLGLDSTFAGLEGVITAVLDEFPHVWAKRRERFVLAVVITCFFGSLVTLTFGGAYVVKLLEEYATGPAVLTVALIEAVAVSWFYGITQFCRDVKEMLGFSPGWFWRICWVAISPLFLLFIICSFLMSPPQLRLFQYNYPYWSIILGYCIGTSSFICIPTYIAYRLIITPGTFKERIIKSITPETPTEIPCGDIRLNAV
Chain of Sodium-dependent serotonin transporter (Rattus norvegicus, UniProt P31652) (P31652 whole entry): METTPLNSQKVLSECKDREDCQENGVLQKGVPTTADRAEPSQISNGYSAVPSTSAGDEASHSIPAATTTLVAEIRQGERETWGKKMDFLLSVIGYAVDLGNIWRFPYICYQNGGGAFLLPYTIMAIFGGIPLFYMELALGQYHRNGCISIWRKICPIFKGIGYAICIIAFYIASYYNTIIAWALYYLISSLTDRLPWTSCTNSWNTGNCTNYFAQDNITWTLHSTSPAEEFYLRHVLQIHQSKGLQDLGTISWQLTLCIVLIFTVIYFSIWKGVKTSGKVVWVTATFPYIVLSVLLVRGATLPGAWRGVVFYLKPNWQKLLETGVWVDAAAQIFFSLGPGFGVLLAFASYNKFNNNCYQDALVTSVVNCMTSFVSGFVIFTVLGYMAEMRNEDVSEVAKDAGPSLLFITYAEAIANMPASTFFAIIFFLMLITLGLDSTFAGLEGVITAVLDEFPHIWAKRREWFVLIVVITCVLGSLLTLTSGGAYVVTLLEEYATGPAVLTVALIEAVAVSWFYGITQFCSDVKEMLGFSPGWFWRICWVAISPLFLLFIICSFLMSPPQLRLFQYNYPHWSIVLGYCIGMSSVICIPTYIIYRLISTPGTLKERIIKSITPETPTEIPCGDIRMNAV

SMILES | Activity (Rattus norvegicus) [%] | pIC50 [1] | pKi [2] | pIC50 [3] | pIC50 ([1]; jar)
NC(=O)c1ccc(F)c2c1CC(N(CCCc1c[nH]c3c(F)cc(F)cc13)C1CCC1)CO2 (single isomer, unassigned; (+)) [listing 1 of 2 here] | – | 6.65 | – | < 6.00 | –
NC(=O)c1ccc(Cl)c2c1CC(N(CCCc1c[nH]c3ccc(F)cc13)C1CCC1)CO2 (stereo in doubt; 35d) | – | 7.25 | 8.43 | < 6.00 | –
NC(=O)c1ccc(F)c2c1C[C@@H](N(CC1CC1)CC1CCc3[nH]c4ccc(F)cc4c3C1)CO2 (stereo in doubt; 59b) [listing 1 of 2 here] | – | – | – | – | < 6.00
NC(=O)c1ccc(F)c2c1C[C@@H](N(CC1CC1)CC1CCc3[nH]c4ccc(F)cc4c3C1)CO2 (stereo in doubt; 59a) [listing 1 of 2 here] | – | < 6.00 | – | < 6.00 | –
CCCN(CC1CCc2[nH]c3ccc(F)cc3c2C1)[C@H]1COc2c(F)ccc(C(N)=O)c2C1 (single isomer, unassigned; (+)) [listing 1 of 2 here] | – | – | – | – | < 6.00
O=C(NC1CCC1)c1ccc(F)c2c1CC(N(CCCc1c[nH]c3ccc(F)cc13)C1CCC1)CO2 (centres undefined) | 12 | 7.15 | 8.14 | – | –
NC(=O)c1cccc2c1CC(N(CCCc1c[nH]c3ccc(F)cc13)C1CCC1)CO2 (stereo in doubt; (+)-35e) [listing 1 of 2 here] | 6 | – | – | – | –
CCCN(CCCc1c[nH]c2ccc(F)cc12)[C@H]1COc2c(F)ccc(OC)c2C1 | 50 | 6.42 | – | – | –
CCNC(=O)c1ccc(F)c2c1CC(N(CCCc1c[nH]c3ccc(F)cc13)C1CCC1)CO2 (centres undefined) | 12 | 7.55 | 8.02 | < 6.00 | –
NC(=O)c1ccc(F)c2c1CC(N(CCCc1c[nH]c3ccc(Cl)cc13)C1CCC1)CO2 (centres undefined) | 20 | 6.21 | – | – | –
CCCN(CC1CCc2[nH]c3ccc(F)cc3c2C1)[C@H]1COc2c(F)ccc(C(N)=O)c2C1 (stereo in doubt; 58a) [listing 1 of 2 here] | 5 | – | – | – | –
NC(=O)c1cccc2c1CC(N(CCCc1c[nH]c3ccc(F)cc13)C1CCC1)CO2 (single isomer, unassigned; (-)) [listing 1 of 2 here] | – | 6.96 | 8.23 | 7.18 | –
NC(=O)c1ccc(F)c2c1C[C@@H](N(CC1CC1)CC1CCc3[nH]c4ccc(F)cc4c3C1)CO2 (stereo in doubt; 59a) [listing 2 of 2 here] | 3 | – | – | – | –
NC(=O)c1cccc2c1CC(N(CCCc1c[nH]c3ccc(F)cc13)C1CCC1)CO2 (stereo in doubt; 35e) | – | 6.94 | 8.02 | – | –
CN(C)C(=O)c1ccc(F)c2c1CC(N(CCCc1c[nH]c3ccc(F)cc13)C1CCC1)CO2 (centres undefined) | – | 6.66 | – | < 5.70 | –
NC(=O)c1cccc2c1CC(N(CCCc1c[nH]c3ccc(F)cc13)C1CCC1)CO2 (single isomer, unassigned; (-)) [listing 2 of 2 here] | 10 | – | – | – | –
N#Cc1ccc2[nH]cc(CCCN(C3CCC3)C3COc4c(F)ccc(C(N)=O)c4C3)c2c1 (single isomer, unassigned; (+)) | 27 | – | – | – | –
NC(=O)c1ccc(F)c2c1C[C@@H](N(CC1CC1)CC1CCc3[nH]c4ccc(F)cc4c3C1)CO2 (stereo in doubt; 59b) [listing 2 of 2 here] | 22 | – | – | – | –
COc1cccc2c1CC(N(CCCc1c[nH]c3ccc(F)cc13)C1CCC1)CO2 (centres undefined) | 15 | – | – | < 5.70 | –
NC(=O)c1ccc(F)c2c1CC(N(CCCCn1ccc3ccc(F)cc31)C1CCC1)CO2 (centres undefined) | 7 | < 6.00 | – | – | –
CCCN(CCCCn1ccc2cc(F)ccc21)C1COc2c(F)ccc(C(N)=O)c2C1 (centres undefined) | – | < 6.00 | – | – | –
NC(=O)c1ccc(F)c2c1C[C@@H](N(CCCc1c[nH]c3ccc(F)cc13)C1CCC1)CO2 | 21 | – | – | – | –
CCCN(CCCc1c[nH]c2ccc(F)cc12)[C@H]1COc2c(F)ccc(C(N)=O)c2C1 | – | – | – | 6.39 | –
CCCN(CC1CCc2[nH]c3ccc(F)cc3c2C1)[C@H]1COc2c(F)ccc(C(N)=O)c2C1 (stereo in doubt; 58a) [listing 2 of 2 here] | – | < 6.00 | < 6.00 | < 6.00 | –
NC(=O)c1cccc2c1CC(N(CCCc1c[nH]c3ccc(F)cc13)C1CCC1)CO2 (stereo in doubt; (+)-35e) [listing 2 of 2 here] | – | 7.55 | – | – | –
CCCN(CC1CCc2[nH]c3ccc(F)cc3c2C1)[C@H]1COc2c(F)ccc(C(N)=O)c2C1 (single isomer, unassigned; (+)) [listing 2 of 2 here] | 15 | – | – | – | –
COc1cccc2c(CCCN(C3CCC3)C3COc4c(F)ccc(C(N)=O)c4C3)c[nH]c12 (centres undefined) | 15 | < 6.00 | < 6.00 | – | –
NC(=O)c1ccc(Cl)c2c1CC(N(CCCc1c[nH]c3ccc(F)cc13)C1CCC1)CO2 (single isomer, unassigned; (-)) | 22 | – | – | – | –

More lines, main results first:

Activity (Rattus norvegicus) [%] | pIC50 [1] | pKi [2] | pIC50 [3] | SMILES | pIC50 ([1]; jar)
27 | 7.82 | 8.08 | – | CNC(=O)c1ccc(F)c2c1CC(N(CCCc1c[nH]c3ccc(F)cc13)C1CCC1)CO2 (centres undefined) | –
15 | – | – | – | CC(CCc1c[nH]c2ccc(F)cc12)N(CC1CC1)C1COc2c(F)ccc(C(N)=O)c2C1 (single isomer, unassigned; (-)) [listing 1 of 2 here] | –
– | 7.61 | 8.62 | – | CCCN(CCCc1c[nH]c2ccc(F)cc12)C1COc2c(F)ccc(C(=O)NC)c2C1 (centres undefined) | –
15 | – | – | – | COc1cccc2c1C[C@@H](N(CCCc1c[nH]c3ccc(F)cc13)C1CCC1)CO2 | –
7 | – | – | – | CC(CCc1c[nH]c2ccc(F)cc12)N(CC1CC1)C1COc2c(F)ccc(C(N)=O)c2C1 (single isomer, unassigned; (+)) [listing 1 of 2 here] | –
– | 6.34 | – | – | CCCN(CCCc1c[nH]c2ccc(F)cc12)[C@@H]1COc2c(F)ccc(OC)c2C1 | –
– | < 6.00 | – | < 6.00 | NC(=O)c1ccc(F)c2c1CC(N(CCCCn1ccc3cc(F)ccc31)C1CCC1)CO2 (centres undefined) | –
4 | 7.35 | 7.95 | < 5.70 | CC(C)NC(=O)c1ccc(F)c2c1CC(N(CCCc1c[nH]c3ccc(F)cc13)C1CCC1)CO2 (centres undefined) | –
– | < 6.00 | 8.00 | – | NC(=O)c1ccc(F)c2c1CC(N(CCCCn1ccc3ccc(F)cc31)CC1CC1)CO2 (centres undefined) | –
30 | 6.05 | – | – | NC(=O)c1ccc(F)c2c1CC(N(CCCc1c[nH]c3cc(F)ccc13)C1CCC1)CO2 (centres undefined) | –
12 | 7.16 | 8.09 | – | O=C(NC1CC1)c1ccc(F)c2c1CC(N(CCCc1c[nH]c3ccc(F)cc13)C1CCC1)CO2 (centres undefined) | –
5 | – | – | – | NC(=O)c1ccc(F)c2c1CC(N(CCCc1c[nH]c3c(F)cc(F)cc13)C1CCC1)CO2 (single isomer, unassigned; (+)) [listing 2 of 2 here] | –
– | 7.15 | – | 6.69 | NC(=O)c1ccc(F)c2c1CC(N(CCCc1c[nH]c3c(F)cc(F)cc13)C1CCC1)CO2 (single isomer, unassigned; (-)) | –
19 | – | – | – | N#Cc1ccc2[nH]cc(CCCN(C3CCC3)C3COc4c(F)ccc(C(N)=O)c4C3)c2c1 (single isomer, unassigned; (-)) | –
18 | < 6.00 | – | < 6.00 | NC(=O)c1ccc(F)c2c1CC(N(CCCCn1ccc3c(F)cccc31)CC1CC1)CO2 (centres undefined) | –
– | 6.54 | – | – | NC(=O)c1ccc(F)c2c1C[C@@H](NCC1CCc3[nH]c4ccc(F)cc4c3C1)CO2 (stereo in doubt; 57a) [listing 1 of 2 here] | –
– | 6.71 | – | 6.48 | CC(CCc1c[nH]c2ccc(F)cc12)N(CC1CC1)C1COc2c(F)ccc(C(N)=O)c2C1 (single isomer, unassigned; (-)) [listing 2 of 2 here] | –

Activity (Rattus norvegicus) [%] | pIC50 [1] | pKi [2] | pIC50 [3] | SMILES | pIC50 ([1]; jar)
5 | 6.99 | – | – | NC(=O)c1ccc(F)c2c1CC(N(CCCCn1ccc3c(F)cccc31)C1CCC1)CO2 (centres undefined) | –
46 | – | – | – | CCCN(CCCc1c[nH]c2ccc(F)cc12)[C@@H]1COc2c(F)ccc(C(N)=O)c2C1 | –
23 | < 6.00 | – | – | CCCN(CCCCn1ccc2c(F)cccc21)C1COc2c(F)ccc(C(N)=O)c2C1 (centres undefined) | –
21 | 7.49 | 8.10 | – | CCCNC(=O)c1ccc(F)c2c1CC(N(CCCc1c[nH]c3ccc(F)cc13)C1CCC1)CO2 (centres undefined) | –
14 | < 6.00 | – | < 6.00 | NC(=O)c1ccc(F)c2c1CC(N(CCCCn1ccc3cccc(F)c31)C1CCC1)CO2 (centres undefined) | –
16 | – | – | – | NC(=O)c1ccc(F)c2c1CC(N(CCCc1c[nH]c3ccc(F)cc13)C1CCC1)CO2 (centres undefined) | –
15 | 6.11 | – | – | CCCN(CCCCn1ccc2ccc(F)cc21)C1COc2c(F)ccc(C(N)=O)c2C1 (centres undefined) | –
– | 6.08 | < 6.00 | 6.38 | COc1ccc2[nH]cc(CCCN(C3CCC3)C3COc4c(F)ccc(C(N)=O)c4C3)c2c1 (centres undefined) | –
– | < 6.00 | – | – | NC(=O)c1ccc(F)c2c1CC(N(CCCCn1ccc3cc(F)ccc31)CC1CC1)CO2 (centres undefined) | –
– | 5.73 | – | – | COC(=O)c1ccc(F)c2c1CC(N(CCCc1c[nH]c3ccc(F)cc13)C1CCC1)CO2 (centres undefined) | –
27 | 6.86 | – | – | NC(=O)c1ccc(F)c2c1CC(N(CCCCn1ccc3cccc(F)c31)CC1CC1)CO2 (centres undefined) | –
39 | 6.36 | – | – | CCCN(CCCCn1ccc2cccc(F)c21)C1COc2c(F)ccc(C(N)=O)c2C1 (centres undefined) | –
31 | 7.36 | 8.16 | < 6.00 | O=C(NCC1CC1)c1ccc(F)c2c1CC(N(CCCc1c[nH]c3ccc(F)cc13)C1CCC1)CO2 (centres undefined) | –
– | 6.79 | – | – | CC(CCc1c[nH]c2ccc(F)cc12)N(CC1CC1)C1COc2c(F)ccc(C(N)=O)c2C1 (single isomer, unassigned; (+)) [listing 2 of 2 here] | –
23 | – | – | – | NC(=O)c1ccc(F)c2c1C[C@@H](NCC1CCc3[nH]c4ccc(F)cc4c3C1)CO2 (stereo in doubt; 57a) [listing 2 of 2 here] | –
29 | < 6.00 | – | < 6.00 | NC(=O)c1ccc(F)c2c1CC(N(CCCc1c[nH]c3c(Cl)cccc13)C1CCC1)CO2 (centres undefined) | –
– | < 6.00 | – | – | NC(=O)c1ccc(F)c2c1C[C@@H](NCC1CCc3[nH]c4ccc(F)cc4c3C1)CO2 (stereo in doubt; 57b) | –
